Experimental data reported in patent publication US20190247376A1, “NICOTINIC ACETYLCHOLINE RECEPTOR AGONIST ATTENUATES ILC2-DEPENDENT AIRWAY HYPERREACTIVITY” (University of Southern California, priority 2016, published 2019).

Tested on: Rag2 GC double knockout mice with adoptively transferred human ILC2s
Assay: Human ILC2-mediated AHR in humanized ILC2 mice
Assay type: in vivo, mouse
Details: i.n. IL-33, agonist three consecutive days
Experimental: FIGS. 7A-7E: α7nAChR agonist prevents human ILC2s mediated AHR and allergic. (FIG. 7A) Human ILC2s were purified from PBMCs via FACS and cultured (10^4 cells per mL) in the presence of recombinant human IL-33 (20 ng mL^−1), IL-2 (10 ng mL^−1), and IL-7 (20 ng mL^−1), with or without α7nAChR agonist for 24h. In the right panel, data are presented as means of four individual donors. […]
Finally, to confirm the efficacy of α7nAChR agonist treatment in human ILC2-mediated AHR, sorted human ILC2s (hILC2s) were cultured in the presence of rh-IL-2 (20 ng mL^−1) and rh-IL-7 (20 ng mL^−1) for 48 hours. […] These humanized mice were given i.n. rh-IL33 (1 μg per mice) with or without α7nAChR agonists (125 µg mL^−1) for three consecutive days, and then AHR was evaluated (FIG. 7B). […]
For human peripheral ILC2s, peripheral blood mononuclear cells (PBMCs) were first isolated from human fresh blood by diluting the blood 1:1 in PBS, adding to SepMate™-50 separation tubes (STEMCELL Technologies Inc, Vancouver, Canada) prefilled with 15-mL Lymphoprep™ each (Axis-Shield, Oslo, Norway), and centrifuging at 1200 g for 15 minutes. […] On day 4, lung function was measured and BAL was performed and analyzed.

SMILES: COc1ccc(/C=C2\CCCN=C2c2cccnc2)c(OC)c1 [GTS-21, 3-[(3E)-3-[(2,4-dimethoxyphenyl)methylidene]-5,6-dihydro-4H-pyridin-2-yl]pyridine]
- ILC2-mediated AHR (lung resistance): dampened
- allergic inflammation (eosinophils in BALF, lung ILC2s): dampened
